Source: patent US12319664B2, “Herbicidally active 3-phenylisoxazoline-5-carboxamides of cyclopentenylcarboxylic acid derivatives” (Bayer Aktiengesellschaft, priority 2018, dated 2025)

Experiments:
STEME [1] = test: Pre-emergence herbicidal action against STEME; type: in vivo, Stellaria media; details: application rate 80 g/ha
Source text: (§1) 1. Pre-emergence herbicidal action against harmful plants and crop plant compatibility Seeds of monocotyledonous and dicotyledonous weed plants and crop plants are placed in plastic or wood-fibre pots and covered with soil. The compounds of the invention, formulated in the form of wettable powders (WP) or as emulsion concentrates (EC), are then applied onto the surface of the covering soil as aqueous suspension or emulsion with addition of 0.5% additive at a water application rate of 600 l/ha (converted). After the treatment, the pots are placed in a greenhouse and kept under good growth conditions for the trial plants. After about 3 weeks, the effect of the preparations is scored visually in comparison with untreated controls as percentages. For example, 100% activity=the plants have died, 0% activity=like control plants. [table]

HORMU [2] = test: Pre-emergence herbicidal action against HORMU; type: in vivo, Hordeum murinum; details: application rate 80 g/ha
Source text: as §1

LOLRI [3] = test: Post-emergence herbicidal action against LOLRI; type: in vivo, Lolium rigidum; details: application rate 80 g/ha, rated visually after about 3 weeks
Procedure, shortened: (§2)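 Weeds grown from seed in sandy loam in the greenhouse, sprayed post-emergence at the one-leaf stage 2 to 3 weeks after sowing. Compounds formulated as WP or EC, applied as aqueous suspension/emulsion with 0.5% additive at 600 l/ha. Activity rated visually after about 3 weeks against untreated controls (100% = plants died, 0% = like control).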

HORMU [4] = test: Post-emergence herbicidal action against HORMU; type: in vivo, Hordeum murinum; details: application rate 80 g/ha
Procedure, shortened: as §2

VIOTR [5] = test: Pre-emergence herbicidal action against VIOTR; type: in vivo, Viola tricolor; details: application rate 80 g/ha
Source text: as §1

ALOMY [6] = test: Pre-emergence herbicidal action against ALOMY; type: in vivo, Alopecurus myosuroides; details: application rate 80 g/ha, scored visually after about 3 weeks vs untreated controls (100% = plants have died, 0% = like control plants)
Source text: as §1

AVEFA [7] = test: Pre-emergence herbicidal action against AVEFA; type: in vivo, Avena fatua; details: application rate 80 g/ha, scored visually after about 3 weeks vs untreated controls (100% = plants have died, 0% = like control plants)
Source text: as §1

AMARE [8] = test: Pre-emergence herbicidal action against AMARE; type: in vivo, Amaranthus retroflexus; details: application rate 80 g/ha
Source text: as §1

SETVI [9] = test: Post-emergence herbicidal action against SETVI; type: in vivo, Setaria viridis; details: application rate 80 g/ha, rated visually after about 3 weeks
Procedure, shortened: as §2

ECHCG [10] = test: Post-emergence herbicidal action against ECHCG; type: in vivo, Echinochloa crus-galli; details: application rate 80 g/ha, rated visually after about 3 weeks
Procedure, shortened: as §2

AMARE [11] = test: Post-emergence herbicidal action against AMARE; type: in vivo, Amaranthus retroflexus; details: application rate 80 g/ha, rated visually about 3 weeks after treatment
Procedure, shortened: as §2

STEME [12] = test: Post-emergence herbicidal action against STEME; type: in vivo, Stellaria media; details: application rate 80 g/ha, rated visually about 3 weeks after treatment
Procedure, shortened: as §2

VIOTR [13] = test: Post-emergence herbicidal action against VIOTR; type: in vivo, Viola tricolor; details: application rate 80 g/ha, rated visually about 3 weeks after treatment
Procedure, shortened: as §2

ECHCG [14] = test: Pre-emergence herbicidal action against ECHCG; type: in vivo, Echinochloa crus-galli; details: application rate 80 g/ha, scored visually after about 3 weeks vs untreated controls (100% = plants have died, 0% = like control plants)
Source text: as §1

SETVI [15] = test: Pre-emergence herbicidal action against SETVI; type: in vivo, Setaria viridis; details: application rate 80 g/ha, scored visually after about 3 weeks vs untreated controls (100% = plants have died, 0% = like control plants)
Source text: as §1

AVEFA [16] = test: Post-emergence herbicidal action against AVEFA; type: in vivo, Avena fatua; details: application rate 80 g/ha, rated visually after about 3 weeks
Procedure, shortened: as §2

POLCO [17] = test: Post-emergence herbicidal action against POLCO; type: in vivo, Polygonum convolvulus; details: application rate 80 g/ha, rated visually about 3 weeks after treatment
Procedure, shortened: as §2

ALOMY [18] = test: Post-emergence herbicidal action against ALOMY; type: in vivo, Alopecurus myosuroides; details: application rate 80 g/ha, rated visually after about 3 weeks
Procedure, shortened: as §2

LOLRI [19] = test: Pre-emergence herbicidal action against LOLRI; type: in vivo, Lolium rigidum; details: application rate 80 g/ha, scored visually after about 3 weeks vs untreated controls (100% = plants have died, 0% = like control plants)
Source text: as §1

POLCO [20] = test: Pre-emergence herbicidal action against POLCO; type: in vivo, Polygonum convolvulus; details: application rate 80 g/ha
Source text: as §1

VERPE [21] = test: Pre-emergence herbicidal action against VERPE; type: in vivo, Veronica persica; details: application rate 80 g/ha
Source text: as §1

MATIN = test: Post-emergence herbicidal action against MATIN; type: in vivo, Matricaria inodora; details: application rate 80 g/ha, rated visually about 3 weeks after treatment
Procedure, shortened: as §2

ABUTH = test: Post-emergence herbicidal action against ABUTH; type: in vivo, Abutilon theophrasti; details: application rate 80 g/ha, rated visually about 3 weeks after treatment
Procedure, shortened: as §2

VERPE [22] = test: Post-emergence herbicidal action against VERPE; type: in vivo, Veronica persica; details: application rate 80 g/ha
Procedure, shortened: as §2

PHBPU [23] = test: Post-emergence herbicidal action against PHBPU; type: in vivo, Pharbitis purpurea; details: application rate 80 g/ha, rated visually about 3 weeks after treatment
Procedure, shortened: as §2

PHBPU [24] = test: Pre-emergence herbicidal action against PHBPU; type: in vivo, Pharbitis purpurea; details: application rate 80 g/ha
Source text: as §1

| SMILES | Herbicidal action against [%] STEME (STEME [1]) [%] | Herbicidal action against [%] HORMU (HORMU [2]) [%] | Herbicidal action against [%] LOLRI (LOLRI [3]) [%] | Herbicidal action against [%] HORMU (HORMU [4]) [%] | Herbicidal action against [%] ALOMY (ALOMY [6]) [%] | Herbicidal action against [%] SETVI (SETVI [9]) [%] | Herbicidal action against [%] ECHCG (ECHCG [10]) [%] | Herbicidal action against [%] AMARE (AMARE [11]) [%] | Herbicidal action against [%] STEME (STEME [12]) [%] | Herbicidal action against [%] VIOTR (VIOTR [13]) [%] | Herbicidal action against [%] AVEFA (AVEFA [16]) [%] | Herbicidal action against [%] POLCO (POLCO [17]) [%] | Herbicidal action against [%] ALOMY (ALOMY [18]) [%] | also measured |
| --- | --- | --- | --- | --- | --- | --- | --- | --- | --- | --- | --- | --- | --- | --- |
| CC1(C(=O)NC2C=CC(C(=O)NS(C)(=O)=O)C2)CC(c2cccc(F)c2)=NO1 (mixture of isomers) [II-13] | 100 | – | – | – | – | – | – | – | – | – | – | – | – | – |
| CCOC(=O)C1=CC[C@@H](NC(=O)C2(C)CC(c3cccc(F)c3)=NO2)C1 (some centres unmarked) [III-05] | – | 80 | 80 | 90 | – | – | – | – | – | – | – | – | – | – |
| CN(C)NC(=O)C1=CCC(NC(=O)C2(C)CC(c3cccc(F)c3)=NO2)C1 (mixture of isomers) [IV-05] | 90 | – | – | – | 80 | – | – | – | – | – | – | – | – | Herbicidal action against [%] VIOTR (VIOTR [5]): 100%; Herbicidal action against [%] AVEFA (AVEFA [7]): 80% |
| CONC(=O)C1=CCC(NC(=O)C2(C)CC(c3cccc(F)c3)=NO2)C1 (mixture of isomers) [IV-04] | 90 | 90 | 90 | 90 | 90 | 80 | 80 | 80 | 80 | 80 | 90 | 80 | 90 | Herbicidal action against [%] AMARE (AMARE [8]): 90%; Herbicidal action against [%] ECHCG (ECHCG [14]): 90%; Herbicidal action against [%] SETVI (SETVI [15]): 100%; Herbicidal action against [%] AVEFA (AVEFA [7]): 90%; Herbicidal action against [%] LOLRI (LOLRI [19]): 100% |
| CC(C)ONC(=O)[C@H]1C=C[C@@H](NC(=O)C2(C)CC(c3cccc(F)c3)=NO2)C1 (some centres unmarked) [II-05] | 90 | – | – | – | – | – | – | – | – | – | – | – | – | – |
| CONC(=O)C1=CC[C@@H](NC(=O)C2(C)CC(c3cccc(F)c3)=NO2)C1 (mixture of isomers) [IV-03, (5SR)-3-(3-Fluorophenyl)-N-[(1R)-3-[(methoxyamino)carbonyl]cyclopent-3-en-1-yl]-5-methyl-4H-1,2-oxazole-5-carboxamide] | – | – | 90 | – | 90 | – | – | – | – | – | – | – | – | – |
| CN(C)C(=O)C1=CCC(NC(=O)C2(C)CC(c3cccc(F)c3)=NO2)C1 (mixture of isomers) [IV-01] | 90 | 90 | – | – | 90 | – | – | – | – | – | – | – | – | Herbicidal action against [%] AMARE (AMARE [8]): 90%; Herbicidal action against [%] POLCO (POLCO [20]): 90%; Herbicidal action against [%] SETVI (SETVI [15]): 90%; Herbicidal action against [%] AVEFA (AVEFA [7]): 90%; Herbicidal action against [%] LOLRI (LOLRI [19]): 100% |
| COC(=O)C1=CC[C@@H](NC(=O)C2(C)CC(c3cccc(F)c3)=NO2)C1 (mixture of isomers) [III-03, methyl (4R)-4-[[[(5SR)-3-(3-fluorophenyl)-5-methyl-4H-1,2-oxazol-5-yl]carbonyl]amino]cyclopentene-1-carboxylate] | – | – | 80 | 90 | – | – | – | – | – | – | 90 | – | – | Herbicidal action against [%] VERPE (VERPE [21]): 80% |
| CC1(C(=O)N[C@@H]2CC=C(C(=O)O)C2)CC(c2cccc(F)c2)=NO1 (mixture of isomers) [III-01, (4R)-4-[[[(5SR)-3-(3-fluorophenyl)-5-methyl-4H-1,2-oxazol-5-yl]carbonyl]amino]cyclopentene-1-carboxylic acid] | – | 80 | – | – | – | – | – | – | – | – | 80 | – | – | Herbicidal action against [%] VERPE (VERPE [21]): 90% |
| CCOC(=O)C1C=CC(NC(=O)C2(C(F)(F)F)CC(c3cc(Cl)cc(Cl)c3)=NO2)C1 (mixture of isomers) [Example I-038] | – | – | 90 | 80 | – | 90 | 80 | 80 | 90 | 80 | 100 | 80 | 90 | Herbicidal action against [%] MATIN (MATIN): 90%; Herbicidal action against [%] ABUTH (ABUTH): 80%; Herbicidal action against [%] VERPE (VERPE [22]): 90%; Herbicidal action against [%] PHBPU (PHBPU [23]): 80% |
| CCOC(=O)[C@H]1C=C[C@@H](NC(=O)C2(C)CC(c3cccc(F)c3)=NO2)C1 (some centres unmarked) [Example I-005] | – | – | – | – | – | – | – | – | – | – | – | – | – | Herbicidal action against [%] AMARE (AMARE [8]): 80% |
| COC(=O)C(NC(=O)C1C=CC(NC(=O)C2(C)CC(c3cc(F)cc(F)c3)=NO2)C1)C(C)C (mixture of isomers) [II-11] | – | – | 90 | 90 | – | 90 | 90 | 90 | 90 | 90 | 90 | 90 | 90 | Herbicidal action against [%] MATIN (MATIN): 90%; Herbicidal action against [%] ABUTH (ABUTH): 90%; Herbicidal action against [%] VERPE (VERPE [22]): 90%; Herbicidal action against [%] PHBPU (PHBPU [23]): 90% |
| CCONC(=O)[C@H]1C=C[C@@H](NC(=O)C2(C)CC(c3cccc(F)c3)=NO2)C1 (some centres unmarked) [II-03] | – | – | – | – | – | – | – | – | – | – | – | – | – | Herbicidal action against [%] VIOTR (VIOTR [5]): 90% |
| CN(C)NC(=O)C1=CCC(NC(=O)C2(C)CC(c3cccc(F)c3)=NO2)C1 (mixture of isomers) [IV-06] | 90 | 90 | 80 | 90 | 100 | 80 | 80 | 80 | 80 | 90 | 90 | 80 | 90 | Herbicidal action against [%] AMARE (AMARE [8]): 80%; Herbicidal action against [%] POLCO (POLCO [20]): 80%; Herbicidal action against [%] VIOTR (VIOTR [5]): 100%; Herbicidal action against [%] ECHCG (ECHCG [14]): 90%; Herbicidal action against [%] SETVI (SETVI [15]): 100%; Herbicidal action against [%] PHBPU (PHBPU [24]): 90%; Herbicidal action against [%] LOLRI (LOLRI [19]): 100% |
| CCOC(=O)C1C=CC(NC(=O)C2(C(F)(F)F)CC(c3cc(F)cc(F)c3)=NO2)C1 (mixture of isomers) [Example I-058] | – | – | 90 | 100 | – | 90 | 100 | 90 | 90 | 90 | 100 | 90 | 100 | Herbicidal action against [%] MATIN (MATIN): 90%; Herbicidal action against [%] ABUTH (ABUTH): 90%; Herbicidal action against [%] VERPE (VERPE [22]): 80%; Herbicidal action against [%] PHBPU (PHBPU [23]): 80% |
| C=CC1(C(=O)NC2C=CC(C(=O)OCCCl)C2)CC(c2cc(F)cc(F)c2)=NO1 (mixture of isomers) [Example I-061] | – | – | 90 | 90 | – | 90 | 100 | 90 | 90 | 80 | 100 | 90 | 90 | Herbicidal action against [%] MATIN (MATIN): 80%; Herbicidal action against [%] ABUTH (ABUTH): 80%; Herbicidal action against [%] VERPE (VERPE [22]): 90%; Herbicidal action against [%] PHBPU (PHBPU [23]): 80% |
